Data reported in patent US20100130598A1, “METHODS FOR INDUCING PROGRAMMED CELL DEATH” (Novogen Research Pty Ltd., priority 2008, published 2010).

How the values were obtained:
caspases-3/7, -8, and -9 = test: Caspase-3/7, -8, and -9 activity assay (Caspase-Glo) on cell lysates; format: cell-based, human; conditions: EOC cells, 24 h; increasing concentrations of Compound 1 or 2 μM Paclitaxel
From the text: Protein preparation and cellular fractionation. After drug treatment, protein was extracted and measured as previously described (Alvero et al, 2006). For separation of the cytoplasmic and mitochondrial fractions, cell pellets were processed using the ApoAlert™ Cell Fractionation Kit (BD Biosciences, San Jose, Calif.) according to the manufacturer's instructions. For separation of the cytoplasmic and nuclear fractions, pellets were processed using NE-PER Nuclear and Cytoplasmic Extraction (Pierce Biotechnology, Inc., Rockford, Ill.). Caspase-3/7, -8, and -9 activity assay. Ten μg of protein in a 50 μl total volume was mixed with 50 μl of equilibrated Caspase-Glo^10 3/7, 8, or 9 reagents (Promega). After incubating at room temperature for 1 h, luminescence was measured using TD 20/20 Luminometer (Turner Designs, Sunnyvale, Calif.). Blank values were subtracted and fold-increase in activity was determined in relation to the control non-treatment.

8 phospho-proteins = test: Analysis of phospho-proteins using xMAP technology (Beadlyte 8-plex); format: cell-based, human; conditions: EOC cells, 10 μg/ml
From the text: Analysis of phoshpo-proteins using xMAP technology. After treatment, cells were lysed and lysates were used to measure the phosphorylation status of 8 proteins using the Beadlyte® 8-plex Multi-Pathway Signaling kit (Millipore, Billerica, Mass.) according to manufacturer's instructions. Data was acquired using the BioPlex System (BioRad, Hercules, Calif.).

EOC tumors = test: Mouse EOC xenograft study; format: in vivo
Experimental: (§1) Mouse xenograft studies. The in vivo study as approved by the Yale University Institutional Animal Care & Use Committee. Cells (1×10^6 cells) were resuspended in 200 μ1 total volume of 50% RPMI and 50% BD Matrigel Matrix (BD Biosciences, Bedford, Mass.) and injected subcutaneously into the right flank of NCR nude mice. Intra-peritoneal therapy commenced eight days post-inoculation as follows: Paclitaxel 10 mg/kg q×3d, Carboplatin 40 mg/kg q×7d, and Compound 1 in 20% HPBCD, 100 mg/kg every day. Control groups received 20% HPBCD in PBS. Mice were treated and observed for 3 weeks. Tumor size was determined by caliper measurements and anti-tumor activity was analyzed with respect to maximal tumor inhibition (treated/control, T/C) as described previously (Kamsteeg et al, 2003).

EndoG = test: Immunohistochemistry of xenograft tumors for EndoG; format: in vivo, NCR nude mice; conditions: paraffin-embedded tumor sections; control tumors only cytoplasmic staining
Experimental: as §1
Immunohistochemistry. Immunohistochemistry was performed as described previously (Kelly et al, 2006) using rabbit anti-EndoG (Lifespan Biosciences, Seattle, Wash.) at 1:100 dilution.

HPAC cells = test: Apoptosis/necrosis by FACS (Annexin-V-FITC/PI), HPAC; format: cell-based, human
Experimental: (§2) Cells. Human pancreatic cell lines HPAC, MIAPaCa-2 and PANC-1 were obtained from the ATCC. (Manassas, Va.). The cells were maintained in DMEM media with Gln and high glucose (Mediatech, Manassas, Va.) with 10% fetal bovine serum (FBS, HyClone, Logan, Utah) and pencillin/streptomycin.
FACS Analysis. Apoptosis was measured by FACS analysis using Annexin-V-FITC and propidium iodide (PI) (Biovision, Mountain View, Calif.) as probes (Ahn et al., 2003). Mitochondrial membrane potential was measured by FACS analysis using JC-1 (Biovision) as a probe (Ahn et al., 2003). Cell cycle was analyzed on ethanol-fixed, RNaseA-treated cells staining with PI. In each spectrum, 10,000 gated events were recorded and analyzed with a FACSCalibur (BD Biosciences. San Jose, Calif.). All experiments were done in triplicate, error bars represent one standard deviation. Caspase inhibitor I (zVAD-fmk) was obtained from Calbiochem.

[1] = tested on: Caspase 2, 3 and 9 in MIAPaCa-2 cells; test: In situ caspase activity by flow cytometry, MIAPaCa-2; format: cell-based, human; conditions: MIAPaCa-2, 10 μM, after 48 hrs
Experimental: as §2
Caspase Activity After 48 h treatment with 10 μM Compound 10, HPAC, MIAPaCa-2 and PANC-1 cells were harvested by trypsinization and resuspended in DMEM media with 10% FBS. The cells were incubated with caspase substrates for 1 h at 37° C., 5% CO2, then probed with Annexin-V-Cy5 and sytox blue. Caspase +ve cells were gated as shown in the histograms and these cells are indicated on the Annexin-V-Cy5/sytox blue spectra as blue cells. In situ caspase activity was assayed using fluorescent substrates. For Caspase 2, FITC-VDVAD-fmk (Biovision K182-100), for Caspase 3, FITC-DEVD-fmk (K183-100) and for Caspase 9, FITC-LEHD-fmk (K199-100) was used. These substrates bind irreversibly to their respective activated caspases, and caspase activation was quantitated by flow cytometry. […] Caspase activation, apoptosis and necrosis were measured simultaneously using a violet, blue and red laser in a BD LSRII flow cytometer.

[2] = dose-escalating, 48 hr exposure

Row | Compound | caspase-3/7, -8, and -9 activities (caspases-3/7, -8, and -9) | ERK, pJNK, pSTAT5a/b, and pCREB (xMAP phospho-protein panel) (8 phospho-proteins) | p-S6k (xMAP phospho-protein panel) (8 phospho-proteins) | pIκB, pSTAT3, and p38 (xMAP phospho-protein panel) (8 phospho-proteins) | tumor proliferation kinetics, final tumor size and volume (EOC tumors; dose-dependent, compared to carboplatin and paclitaxel) | T/C values (maximal tumor inhibition, treated/control) (EOC tumors; intra-peritoneal, 3 weeks, Compound 1 100 mg/kg every day, Carboplatin 40 mg/kg q×7d, Paclitaxel 10 mg/kg q×3d) | toxic side effects (EOC tumors; mouse, in vivo) | localization of EndoG in tumors (EndoG) | effect of zVAD-fmk pre-treatment on induced apoptosis (HPAC cells; 10 μM zVAD-fmk 1 hr before 10 μM Compound 10, 42-46 h) | effect of zVAD-fmk pre-treatment on induced necrosis (HPAC cells; 10 μM zVAD-fmk 1 hr pre-treatment, 10 μM Compound 10 or Fas-activating antibody) | apoptosis (HPAC cells; [2]) | necrosis (HPAC cells; [2]) | caspase 2, 3 and 9 activation [1]
1 | COc1ccc(C2c3ccc(O)c(C)c3OCC2c2ccc(O)cc2)cc1 (stereo not shown) [Compound 1, 3-(4-hydroxyphenyl)-4-(4-methoxyphenyl)-8-methylchroman-7-ol] | no changes | Up-regulation | down-regulates | minimal or no effect | significant decrease | 30% | No toxic side effects | nuclear localization |  |  |  |  | 
2 | COc1ccc(C2c3ccc(O)cc3OCC2c2ccc(O)cc2)cc1 (stereo not shown) [Compound 10, 3-(4-hydroxyphenyl)-4-(4-methoxyphenyl)chroman-7-ol] |  |  |  |  |  |  |  |  | did not inhibit | inhibited | induced apoptosis in a dose-dependent fashion | Very little necrosis | activated
